Test results from patent publication US9456589B2, “Elasmobranch-repelling compounds and methods of use” (priority 2005, dated 2016).
Like-named read-outs stand apart in the source and are kept apart here.

Legend:
[1] = test system: Caribbean reef sharks; experiment: Cloud dispersion assay (cloud - co2); assay type: in vivo, C. perezii; conditions: for Comments (effect on shark population): cloud, 500 mL
Text: Another bioassay used to observe a flight response in sharks is a cloud dispersion assay on competitively feeding population of sharks. This assay is referred to as a “Cloud Dispersion Assay” or “Cloud Assay.” A pressurized fluid delivery system was designed to deliver repellent into large feeding populations of sharks. The repellent is released as a subsurface cloud, which follows the current. A 1 L plastic container containing the test chemical repellent solution is pressurized to approximately 20 psig with a battery compressor or hand pump. A globe valve is used to hold back the fluid. The fluid is delivered to the end of a long PVC pole using a Teflon tubing. This allows the operator to place the tip of the pole well into a population of feeding sharks. By actuating the small globe valve, a cloud of the chemical solution is released quickly and reliably into the feeding population. Controls are established using FD&C Red 40 dye and seawater, uncolored seawater, and air. These controls establish that sharks are not afraid to approach the delivery pole, nor are sharks deterred from feeding by the jet of control fluid or air.
Syringe 3/5/10, Hd Syringe and Micropipette assays were carried out as described in Examples 1 and 2.

[2] = test system: nurse sharks; experiment: Tonic immobility, Hd Syringe Assay; assay type: in vivo, C. cirratum; conditions: juvenile nurse shark
Procedure: (§1) One bioassay used to observe and measure flight response is the tonic immobility test. Tonic immobility is a state of paralysis that typically occurs when a shark is subject to inversion of its body along the longitudinal axis. This state is called “tonic,” and the shark can remain in this state for up to 15 minutes thereby allowing researchers to observe effects of chemical repellents. The “tonic” state of the shark is first established by releasing seawater in proximity to the “tonic” shark with the same delivery instrument and at the same distance as a “test” repellent compound will be released. Some controls are released with a high flow rate (30 mL/sec) in order to establish that sharks are not awakened by a jet of fluid over their noses. Once behavioral controls are established, a compound or composition that may have a repelling effect is delivered to the shark. If the compound or composition engenders a flight response, the shark will awaken from the tonic state and rapidly attempt to flee the delivered repellent. Using this tonic immobility bioassay researches can quantify the strength of a repellent effect.
Lemon, nurse, blacktip and tiger sharks were placed in tonic immobility by inverting the shark's body along its longitudinal axis. […]

[3] = test system: lemon sharks; experiment: Tonic immobility, Hd Syringe Assay; assay type: in vivo, N. brevirostris; conditions: lemon sharks
Procedure: as §1
(§2) Lemon, nurse, blacktip and tiger sharks were placed in tonic immobility by inverting the shark's body along its longitudinal axis. […] The “tonic” state of each shark was first established by releasing a control of seawater in proximity to the shark with the same delivery instrument and at the same distance as the chemical repellent would later be delivered. In certain controls, sea water was released with a high flow rate (30 mL/sec) in order to establish that the sharks would not be awakened by a jet of fluid over their noses.
Once behavioral controls were established, the chemical repellent was delivered to the shark using the Hd Syringe Assay method, the Syringe 3/5/10 Assay method, the Bite Assay method or the Micropipette Assay method. […]

[4] = test system: sharks (lemon, nurse, tiger pooled); experiment: Tonic immobility, Hd Syringe Assay, summary over species; assay type: in vivo; conditions: species pooled
Procedure: as §1
In Hd-Syringe Assays, the 3-methylbutanal was delivered to the shark's mouth and nares using a 3 mL hypodermic syringe fitted with a 22 gauge needle. The needle was held within 3 inches of the shark's mouth and the test repellent was slowly released from the syringe with a very fine plume in the water column. Any response was denoted. If a response occurred during a measurable time after delivery of the test chemical, the time between delivery and response was noted. If a response occurred immediately or the response occurred before a measurable time could be established, no time to response was noted.

[5] = test system: blacktip sharks; experiment: Tonic immobility, Syringe 3/5/10 Assay; assay type: in vivo, C. limbatus
Procedure: as §1
(§3) In the tonic immobility studies disclosed herein, several different methods were employed for delivery of repelling compounds. A first method for delivery of chemical repellent in tonic immobility studies employed a “Syringe 3/5/10 Assay” method. The “Syringe 3/5/10 Assay” method is so named because a test repellent is delivered to a shark from a distance of about “3” inches with a bolus of about “5” mL with a response to the test repellent considered positive if the shark reacts with a change in behavior within less than about “10” seconds from the time of delivery.
(§4) The “3/5/10 Syringe Assay” as employed herein delivered a dose of 5-6 mL of a test chemical repellent from a syringe fixed with a needle having a gauge of about 22 from a distance at least 3 inches in front of a shark. Because the test chemical repellent was delivered at a distance from the shark's nares and mouth, a cloud of test chemical repellent was dispersed over the shark within the water column. The dispersed test repellent was subject to water current direction, dispersion and dilution. As a result, a flight response within 10 seconds was considered a positive repellency response. […] Time from delivery to response is related to the size of the bolus delivered from the syringe, distance of the shark from the syringe and water current.
as §2
(§5) Once behavioral controls were established, the chemical repellent was delivered to the shark using the Hd Syringe Assay method, the Syringe 3/5/10 Assay method, the Bite Assay method or the Micropipette Assay method. […] If tonic immobility was terminated, the positive response was denoted as “Y.” If tonic immobility was not terminated but a behavior change within tonic immobility was noted, such as the opening of the mouth or a cough, the response was denoted as an “R” for reduced response. If no behavior change was observed, the negative response was denoted “N.”
In Syringe 3/5/10 Assays, 5-6 mL of 3-methylbutanal was delivered at least 3 inches in front of the shark's mouth. A cloud of the repellent dispersed over the shark within the water column. […] As noted above, because the dispersion of the chemical repellent upon delivery is affected by volume of repellent, water current, and other factors, the time between delivery and response was not correlatable with the potency of the repellent. […]

[6] = test system: juvenile lemon and nurse sharks; experiment: Tonic immobility, Micropipette Assay, summary over species; assay type: in vivo; conditions: for Micropipette Y (termination of tonic immobility), trials of trials: juvenile lemon and nurse sharks, oral dose
Procedure: as §1
(§6) A fourth method of delivery was called the “Micropipette Assay” method of delivery. In this method, a very small dose (fraction of a mL) of a test substance was delivered directly into a shark's mouth. […] A response, such as a cough or other notable action of the shark, was usually noted when effective gustatory repellents were delivered directly into a shark's mouth while in tonic immobility.
(§7) The Micropipette Assay method has not proven to be a particularly effective method of assaying for a flight response in elasmobranchs. The Micropipette Assay method is, nevertheless, an excellent method for specifying that a gustatory response has occurred. It is effective for specifying a gustatory response because the micropipette delivery method allows direct delivery of an entire bolus of test substance into the mouth of the shark being tested.
An oral dose of no more than 400 microliters was then delivered by micropipette into the mouth of a juvenile nurse shark. Tonic immobility was terminated. For each derivative of butyric acid and each naturally occurring acid listed in Table 9, a first micropipette assay was performed on a juvenile lemon shark with no more than 100 microliters of test acid in an oral dose. A second micropipette assay was then performed on a juvenile nurse shark with no more than 400 microliters of test acid in an oral dose. In each test, tonic immobility was terminated.
In a first set of studies on the effectiveness of carboxylic acids as elasmobranch repellents, each tested substance was subjected to the following protocol. […] An oral dose of no more than 400 microliters was then delivered by micropipette into the mouth of a juvenile nurse shark. Tonic immobility was terminated. […] The data evidences the gustatory repelling activity of carboxylic acids.

[7] = test system: nurse sharks; experiment: Tonic immobility, Syringe 3/5/10 Assay; assay type: in vivo, C. cirratum; conditions: Table 24; nurse shark; syringe 3/5/10 delivery; 6 ml; mouth
[8] = test system: juvenile sharks; experiment: Initial tonic immobility assays, mouth delivery by micropipette or syringe; assay type: in vivo; conditions: introduced to the mouth using a micropipette or syringe
[9] = test system: sharks (lemon, nurse, blacktip, tiger, blacknose pooled); experiment: Tonic immobility, Syringe 3/5/10 Assay, summary over species; assay type: in vivo
Procedure: as §1, §3, §4
In Syringe 3/5/10 Assays, 5-6 mL of 3-methylbutanal was delivered at least 3 inches in front of the shark's mouth. A cloud of the repellent dispersed over the shark within the water column. […] As noted above, because the dispersion of the chemical repellent upon delivery is affected by volume of repellent, water current, and other factors, the time between delivery and response was not correlatable with the potency of the repellent.

[10] = test system: nurse sharks; experiment: Tonic immobility, Micropipette Assay; assay type: in vivo, C. cirratum
Procedure: as §1, §6
The Micropipette Assay method has not proven to be a particularly effective method of assaying for a flight response in elasmobranchs. The Micropipette Assay method is, nevertheless, an excellent method for specifying that a gustatory response has occurred. It is effective for specifying a gustatory response because the micropipette delivery method allows direct delivery of an entire bolus of test substance into the mouth of the shark being tested. […]

[11] = test system: lemon sharks; experiment: Tonic immobility, Micropipette Assay; assay type: in vivo, N. brevirostris; conditions: juvenile lemon shark, micropipette
Procedure: as §1, §6, §7
Using a microliter syringe or microliter pipette, a bolus of test chemical can be directed precisely into one of the shark's nares, or its mouth. […] Olfactory repellents will terminate tonic immobility almost immediately when injected into a nare of the shark.
as §2, §5
Further because the Micropipette assays were often done serially on the same set of sharks, second and third doses of the repellent over time would be expected to evoke less of a reaction. Nevertheless, the small doses delivered to the shark in the Micropipette assay provide important data on whether a compound is a gustatory stimulant because the small dose may be delivered directly into the mouth of the shark. This eliminates any olfactory response that might be acting in concert with a gustatory response to terminate tonic immobility.

[12] = listed as crotonic acid solution

SMILES: Cc1cccnc1N [2-amino-3-picoline]
- T? ([1]; cloud - co2, 500 mL): Y
- Comments (effect on shark population) [1]: population decreased
- Comments (effect on shark population) ([1]; listed as 2-amino-3-picoline 95% cut to 10% w/w with desalinated water): population decrease

SMILES: Cc1c(N)c(=O)n(-c2ccccc2)n1C [4-aminoantipyrine]
- Hd Syringe assays terminating tonic immobility [2]: terminated
- Hd Syringe assays terminating tonic immobility [3]: all assays terminated tonic immobility
- Hd-Syringe Y (termination of tonic immobility), trials of trials [4]: terminated tonic immobility in all tests
- Hd-Syringe Y (termination of tonic immobility), trials of trials ([4]; listed as 4-amino-antipyrine): five of five
- Hd-Syringe Y (termination of tonic immobility), trials of trials ([4]; listed as 4-amino-antipyrine (metapirazone)): 5/5
- Syringe 3/5/10 assays with no response ([5]; blacktip sharks): no response

SMILES: O=C(O)CC(O)(CC(=O)O)C(=O)O [Citric acid 50% w/w, Citric acid]
- Hd Syringe assays terminating tonic immobility [3]: four of four
- Hd-Syringe Y (termination of tonic immobility), trials of trials [4]: 4/4
- Micropipette Y (termination of tonic immobility), trials of trials [6]: 2/2
- T? (termination of tonic immobility) ([5]; Table 24, blacktip shark, syringe 3/5/10 delivery, 6 ml, mouth longline): Y
- T? (termination of tonic immobility) [7]: R

SMILES: c1ccncc1 [Pyridine, pyridine]
- result of initial tonic immobility assays [8]: terminated tonic immobility
- Syringe 3/5/10 R (behavior response within tonic immobility), trials of trials [9]: 1/4
- Syringe 3/5/10 Y (termination of tonic immobility), trials of trials [9]: 3/4
- Syringe 3/5/10 R (behavior response within tonic immobility), trials of trials ([9]; listed as pyridine): one of four
- Syringe 3/5/10 Y (termination of tonic immobility), trials of trials ([9]; listed as pyridine): three of four
- Micropipette assay outcome ([10]; nurse shark, about 500 microliters into the mouth): did not evoke a response

SMILES: CC=CC(=O)O [crotonic acid solution (2-butenoic acid), 2-butenoic acid]
- Micropipette Y (termination of tonic immobility), trials of trials [6]: 2/2
- screening result ([6]; lemon and nurse sharks): shark repelling compounds
- Syringe 3/5/10 N (no response), trials of trials [9]: 2/7
- Syringe 3/5/10 R (behavior response within tonic immobility), trials of trials [9]: 1/7
- Syringe 3/5/10 Y (termination of tonic immobility), trials of trials [9]: 4/7
- Syringe 3/5/10 N (no response), trials of trials [9, 12]: two of the seven
- Syringe 3/5/10 R (behavior response within tonic immobility), trials of trials [9, 12]: one of the seven
- Syringe 3/5/10 Y (termination of tonic immobility), trials of trials [9, 12]: four of the seven
- T? (termination of tonic immobility) [7]: Y and R

SMILES: CCCC(=O)O [n-Butyric Acid, n-butyric acid]
- Micropipette Y (termination of tonic immobility), trials of trials [6]: 2/2
- Micropipette Y (termination of tonic immobility), trials of trials ([6]; listed as butyric acid): termination of tonic immobility
- mouth dose at which tonic immobility was terminated ([6]; juvenile lemon or nurse sharks): 100 µL
- oral dose that terminated tonic immobility [11]: no more than 100 microliters
- oral dose that terminated tonic immobility ([10]; juvenile nurse shark, micropipette): no more than 400 microliters
